Experimental data: US10668049B2, “Methods of treating cognitive decline with transforming growth factor beta inhibitors” (The Regents of the University of California, priority 2008, dated 2020)

Tested on: TGF-β signaling pathway
Assay: Microarray and real-time RT-PCR gene expression after in vivo albumin with or without TGF-βR blockers
Design: species or system rat
Details: albumin alone, 24 hours
Procedure: All experimental procedures were approved by the ethical committees dealing with experiments on animals at Charité University Medicine, Berlin and Ben-Gurion University of the Negev, Beer-Sheva. The in vivo experiments were performed as previously described (ivens et al., 2007; Seiffert et al., 2004). Adult male Wistar rats were treated with artificial cerebrospinal fluid (aCSF, composition in mM: 129 NaCl, 21 NaHCO3, 1.25 NaH2PO4, 1.8 MgSO4, 1.6 CaCl2, 3 KCl, 10 glucose) supplemented with deoxycholic acid (DOC, 2 mM, Sigma-Aldrich, Steinheim, Germany), bovine serum albumin (BSA, 0.1 mM. Merck, Darmstadt, Germany) corresponding to 25% of serum albumin concentration, or with TGF-β1 (10 ng/ml, Peprotech, Rocky Hill, N.J.). Sham-operated animals (perfused with aCSF) served as controls. […]
Total RNA was isolated using the TRIzol reagent (Invitrogen. Carlsbad, Calif.) and prepared using the Affymetrix GeneChip one-cycle target labeling kit (Affymetrix, Santa Clara, Calif.). […] Pairwise Pearson correlation coefficients for the three treatments were determined with Excel (Microsoft Corp., Richmond, Wash.). […]
mRNA expression levels were determined by quantitative reverse transcriptase-PCR by real-time kinetic analysis with an iQ5 detection system (Bio-Rad, Hercules, Calif.). Real-time PCR data were analyzed using the PCR Miner program (Zhao and Fernald, 2005). […]

With “albumin: bovine serum albumin, used to induce epileptogenesis” the “NF-kappaB cascade, Jak-Stat cascade, and MAPKKK cascade expression” value was “upregulated”.
